Measured values taken from PubChem BioAssay (NCI).
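Following 48 hours of exposure in 96-well plates, responses at five concentrations were used to interpolate endpoints linearly. The concentration for full growth arrest is given as TGI.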

What was measured:
Assay in all cases: NCI-60 cell line screen, 48 h
[1] = system: SR leukemia
[2] = system: MOLT-4 leukemia
[3] = system: NCI-H460 lung
[4] = system: UACC-257 melanoma
[5] = system: UACC-62 melanoma
[6] = system: OVCAR-8 ovarian
[7] = system: IGROV1 ovarian
[8] = system: SK-OV-3 ovarian
[9] = system: LXFL 529 NSCLC
[10] = system: KM12 colon
[11] = system: CCRF-CEM leukemia
[12] = system: M14 melanoma
[13] = system: SW-620 colon
[14] = system: DLD-1 colon
[15] = system: DMS 273 small cell lung
[16] = system: LOX IMVI melanoma
[17] = system: ACHN renal
[18] = system: RXF 393 renal
[19] = system: SK-MEL-2 melanoma
[20] = system: RPMI-8226 leukemia
[21] = system: NCI-H522 lung
[22] = system: U251 CNS
[23] = system: SF-539 CNS
[24] = system: OVCAR-3 ovarian
[25] = system: NCI-H226 lung
[26] = system: K-562 leukemia
[27] = system: SK-MEL-28 melanoma
[28] = system: NCI-H23 lung
[29] = system: HL-60(TB) leukemia
[30] = system: KM20L2 colon
[31] = system: HOP-92 NSCLC
[32] = system: TK-10 renal
[33] = system: MALME-3M melanoma
[34] = system: A498 renal
[35] = system: OVCAR-5 ovarian
[36] = system: SNB-78 CNS
[37] = system: SF-295 CNS
[38] = system: A549 NSCLC
[39] = system: SNB-75 CNS
[40] = system: XF 498 CNS
[41] = system: CAKI-1 renal
[42] = system: HCT-116 colon
[43] = system: 786-0 renal
[44] = system: SN12C renal
[45] = system: SK-MEL-5 melanoma
[46] = system: SNB-19 CNS
[47] = system: DMS 114 small cell lung
[48] = system: HT29 colon
[49] = system: HOP-62 NSCLC
[50] = system: UO-31 renal
[51] = system: OVCAR-4 ovarian
[52] = system: EKVX NSCLC
[53] = system: HCT-15 colon
[54] = system: M19-MEL melanoma
[55] = system: COLO 205 colon
[56] = system: HCC-2998 colon
[57] = system: SF-268 CNS
[58] = system: HOP-18 NSCLC

Measured: TGI

C=CC1(CC)/C(=N\O)C(CC)(CC)C(=O)N1O (configuration not stated)
not listed: [57] | [58]
> 100 µM: all other assays above

[N-]=[N+]=Nc1ccccc1Oc1ccccc1
not listed: [11] | [18] | [31] | [33] | [58]
> 100 µM: all other assays above

COC(=O)c1cc(OC(C)=O)c2c(OC)ccc(OC)c2c1
not listed: [11] | [16] | [21] | [29] | [34] | [46] | [49] | [50] | [56] | [57] | [58]
> 100 µM: all other assays above

COc1ccc(C2C(Cl)C(=O)N2NC(=O)c2ccc(N)cc2)cc1 (configuration not stated)
not listed: [1] | [18] | [57] | [58]
> 100 µM: all other assays above

O=C1CN2C(Cl)(Cl)C2(c2ccccc2)c2cc(Cl)ccc2N1CC1CC1 (configuration not stated)
86.1 µM: [57]
32.9 µM: [27]
> 100 µM: [9] | [13] | [32] | [35] | [41] | [51]
89.1 µM: [52]
41.6 µM: [25]
34.7 µM: [22]
66.6 µM: [50]
68.6 µM: [1]
33.8 µM: [24]
30.2 µM: [10]
35.8 µM: [42]
33.4 µM: [19] | [56]
35.7 µM: [45]
93.8 µM: [54]
63.2 µM: [15]
44.9 µM: [48]
31.6 µM: [16]
29.8 µM: [6]
85.8 µM: [47]
81.2 µM: [58]
54.8 µM: [2]
61.4 µM: [11]
88.5 µM: [30]
51.7 µM: [28]
81.8 µM: [20]
94.8 µM: [39]
26.2 µM: [31]
35.5 µM: [44]
44.2 µM: [14]
32 µM: [3] | [33]
65.8 µM: [17] | [26]
50.3 µM: [49]
40.9 µM: [4]
36.6 µM: [12]
38.2 µM: [21]
38.8 µM: [55]
47.1 µM: [37]
35.9 µM: [18]
48.9 µM: [53]
